One series addresses T1, rKV1.1 (Rattus norvegicus, UniProt P10499).
T1 construct: expressed in transfected cells; host or cells: Xenopus laevis oocytes injected with cRNA
Nature of the series: Two-electrode voltage-clamp, X. laevis oocytes expressing rKV1.1. The class given is cell-based. As to conditions: mean ± standard error. The procedure: (§1) Stage V–VI of X. laevis oocytes were harvested by partial ovariectomy under anesthesia (3-aminobenzoic acid ethyl ester methanesulfonate salt, 0.5 g/L from Sigma-Aldrich Co., Saint Louis, MO, USA). The oocytes were defolliculated for 2 h by treatment with 2 mg/mL collagenase (Sigma-Aldrich Co., Saint Louis, MO, USA) in Ca^2+ free ND96 solution (in mM: 96 NaCl; 2 KCl; 1 MgCl2; 5 HEPES adjusted pH 7.4). For the expression of KV channels (KV1.1–KV1.6, KV2.1, KV3.1, KV4.2, KV4.3, hERG and the insect channel Shaker IR), the linearized plasmids were transcribed using the T7 or SP6 mMessage-mMachine transcription kit (Ambion, Austin, TX, USA). Oocytes were injected with 50 nL of cRNA at a concentration of 1 ng/nL using a microinjector (Drummond Scientific, Broomall, PA, USA). The oocytes were maintained in a ND96 solution (in mM: 96 NaCl, 2 KCl, 1.8 CaCl2, 2 MgCl2 and 5 HEPES; adjusted pH 7.4), supplemented with 50 µg/mL gentamicin sulfate.
(§2) Two-electrode voltage-clamp recordings were performed at room temperature (18–22 °C) using a Geneclamp 500 amplifier (Molecular Devices, Sunnyvale, CA, USA) controlled by a pClamp data acquisition system (Axon Instruments, Union City, CA, USA). Whole-cell currents from oocytes were recorded from 1 to 3 days after injection. Bath solution was the same ND96 solution described above. Voltage and current electrodes were filled with 3 M KCl. Resistances of both electrodes were kept between 0.8 and 1.0 ΩM. The elicited currents were filtered at 500 Hz using a four-pole lowpass Bessel filter. Leak subtraction was performed using a −P/4 protocol. KV1.1–KV1.6 and Shaker IR currents were evoked by 500 ms depolarizations to 0 mV, followed by a 500 ms pulse to −50 mV, from a holding potential of −90 mV. Current traces of hERG channels were elicited by applying a +40 mV prepulse for 2 s, followed by a step to −120 mV for 2 s. KV3.1, KV 4.2 and KV4.3 currents were elicited by 500 ms pulses to +20 mV from a holding potential of −90 mV. To assess the concentration-response relationships, data were fitted with the Hill equation: y = 100/[1 + (EC50/[toxin])h] (1) where y is the amplitude of the toxin-induced effect, EC50 is the toxin concentration at half maximal efficacy, [toxin] is the toxin concentration and h is the Hill coefficient. In order to investigate the current-voltage relationship, current traces were evoked by 10 mV depolarization steps from a holding potential of −90 mV. […]
(§3) Comparison of two sample means was made using a paired Student’s t test (p < 0.05). […] All data were analyzed using Clampfit 10.3 (Molecular Devices, Sunnyvale, CA, USA) and Origin 7.5 software (Origin Lab., Northampton, MA, USA).
In general terms: Two-electrode voltage clamp is typically applied to oocytes expressing channels or transporters.

The next series addresses T2, rKV1.6 (Rattus norvegicus, UniProt P17659).
T2 construct: expressed in transfected cells; host or cells: Xenopus laevis oocytes injected with cRNA
Nature of the series: Two-electrode voltage-clamp, X. laevis oocytes expressing rKV1.6. The class given is cell-based. As to conditions: mean ± standard error. On the procedure: as §1, §2, §3

The target of series [1] is T3, hKV1.3 (Homo sapiens, UniProt P22001). Nature of the series: Two-electrode voltage-clamp, X. laevis oocytes expressing hKV1.3. The class given is cell-based. The arrangement: expressed in transfected cells; host or cells: Xenopus laevis oocytes injected with cRNA. The procedure: as §1, §2, §3
T3 sequence (P22001 whole entry): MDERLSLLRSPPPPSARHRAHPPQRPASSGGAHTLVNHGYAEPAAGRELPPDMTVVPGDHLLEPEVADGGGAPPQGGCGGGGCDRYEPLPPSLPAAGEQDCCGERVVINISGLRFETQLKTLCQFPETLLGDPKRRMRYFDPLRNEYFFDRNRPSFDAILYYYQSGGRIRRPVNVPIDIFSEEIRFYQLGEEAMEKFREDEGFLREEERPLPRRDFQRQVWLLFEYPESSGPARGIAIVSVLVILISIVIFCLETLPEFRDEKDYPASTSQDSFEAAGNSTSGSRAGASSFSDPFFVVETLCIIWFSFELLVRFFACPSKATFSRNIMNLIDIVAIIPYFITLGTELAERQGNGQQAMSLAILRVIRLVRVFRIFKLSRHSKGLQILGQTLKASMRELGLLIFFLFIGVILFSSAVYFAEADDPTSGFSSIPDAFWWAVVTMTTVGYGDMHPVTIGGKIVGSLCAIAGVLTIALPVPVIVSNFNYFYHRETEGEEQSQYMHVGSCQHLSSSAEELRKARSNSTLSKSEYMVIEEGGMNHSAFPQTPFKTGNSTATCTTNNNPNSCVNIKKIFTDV
For a further series, the target named is T4, rKV1.2 (Rattus norvegicus, UniProt P63142).
T4 construct: expressed in transfected cells; host or cells: Xenopus laevis oocytes injected with cRNA
T4 sequence (P63142 whole entry): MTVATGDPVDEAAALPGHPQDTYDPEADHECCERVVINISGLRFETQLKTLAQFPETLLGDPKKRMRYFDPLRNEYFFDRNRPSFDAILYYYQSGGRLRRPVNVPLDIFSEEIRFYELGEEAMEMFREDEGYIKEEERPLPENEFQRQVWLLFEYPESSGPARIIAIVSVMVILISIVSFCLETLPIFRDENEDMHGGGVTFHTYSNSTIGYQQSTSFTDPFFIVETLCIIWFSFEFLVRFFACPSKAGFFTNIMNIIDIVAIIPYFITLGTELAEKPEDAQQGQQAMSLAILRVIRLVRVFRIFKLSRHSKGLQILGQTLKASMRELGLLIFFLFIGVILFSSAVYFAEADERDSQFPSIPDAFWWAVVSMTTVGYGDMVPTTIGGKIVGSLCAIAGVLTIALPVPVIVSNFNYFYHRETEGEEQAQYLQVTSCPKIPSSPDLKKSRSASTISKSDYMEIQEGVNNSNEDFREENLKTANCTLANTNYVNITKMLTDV
Nature of the series: Two-electrode voltage-clamp, X. laevis oocytes expressing rKV1.2. The class given is cell-based. On the procedure:
as §1, §2, §3

In series [2] the test system is KV1.1–KV1.6, KV2.1, KV3.1, KV4.2, KV4.3, hERG and Shaker IR. Nature of the series: Electrophysiological screening on 12 cloned KV channel isoforms in X. laevis oocytes. The class given is cell-based, rat, human, insect. On the procedure:
The pharmacological profile of BcsTx-1 and -2 were determined on a wide range of twelve KV channels (rKV1.1, rKV1.2, hKV1.3, rKV1.4, rKV1.5, rKV1.6, rKV2.1, rKV3.1, rKV4.2, rKV4.3, hERG and the insect channel Shaker IR; r: rat and h: human). Channels were expressed in X. laevis oocytes, and their currents were recorded by using two-electrode voltage-clamp technique. BcsTx1 (0.5 µM) inhibited rKv1.1, rKv1.2, rKv1.3, rKv1.6 and Shaker IR channels with 44% ± 2%, 100%, 100%, 88% ± 3% and 64% ± 4%, respectively (Figure 6). […] Type 1 toxins, such as BgK and ShK, have been extensively characterized. […] Some of the other type 1 toxins were indirectly assayed by competitive inhibition of the binding of ^125I-dendrotoxins, allowing the conclusion that they will show activity on KV1.1, KV1.2 and/or KV1.6, since dendrotoxins only block the current of these KV channels. […] Thus, it is worth mentioning that our work represents the first electrophysiological characterization of type 1 sea anemone toxin activity on cloned Shaker IR insect channel.
as §1
Two-electrode voltage-clamp recordings were performed at room temperature (18–22 °C) using a Geneclamp 500 amplifier (Molecular Devices, Sunnyvale, CA, USA) controlled by a pClamp data acquisition system (Axon Instruments, Union City, CA, USA). Whole-cell currents from oocytes were recorded from 1 to 3 days after injection. Bath solution was the same ND96 solution described above. Voltage and current electrodes were filled with 3 M KCl. Resistances of both electrodes were kept between 0.8 and 1.0 ΩM. The elicited currents were filtered at 500 Hz using a four-pole lowpass Bessel filter. Leak subtraction was performed using a −P/4 protocol. KV1.1–KV1.6 and Shaker IR currents were evoked by 500 ms depolarizations to 0 mV, followed by a 500 ms pulse to −50 mV, from a holding potential of −90 mV. Current traces of hERG channels were elicited by applying a +40 mV prepulse for 2 s, followed by a step to −120 mV for 2 s. KV3.1, KV 4.2 and KV4.3 currents were elicited by 500 ms pulses to +20 mV from a holding potential of −90 mV. To assess the concentration-response relationships, data were fitted with the Hill equation: y = 100/[1 + (EC50/[toxin])h] (1) where y is the amplitude of the toxin-induced effect, EC50 is the toxin concentration at half maximal efficacy, [toxin] is the toxin concentration and h is the Hill coefficient. In order to investigate the current-voltage relationship, current traces were evoked by 10 mV depolarization steps from a holding potential of −90 mV. The activation curves were fitted with a Boltzmann relationship of the form: 1/(1 + e^[−(V − V^1/2)/^S^]) (2) where V1/2 is the voltage for half-maximal activation and s is the slope factor. The activation kinetics were obtained by mono-exponential fits to the raw current traces.

Another series addresses T5, Shaker IR (Drosophila melanogaster, UniProt P08510, DEL6-46).
T5 construct: expressed in transfected cells; host or cells: Xenopus laevis oocytes injected with cRNA
Nature of the series: Two-electrode voltage-clamp, X. laevis oocytes expressing Shaker IR. The class given is cell-based, insect. Particulars: mean ± standard error. The procedure:
as §1, §2, §3

The target in series [3] is rKV1.6 (rat) (UniProt P17659).
Chain of rKV1.6 (rat) (P17659 whole entry): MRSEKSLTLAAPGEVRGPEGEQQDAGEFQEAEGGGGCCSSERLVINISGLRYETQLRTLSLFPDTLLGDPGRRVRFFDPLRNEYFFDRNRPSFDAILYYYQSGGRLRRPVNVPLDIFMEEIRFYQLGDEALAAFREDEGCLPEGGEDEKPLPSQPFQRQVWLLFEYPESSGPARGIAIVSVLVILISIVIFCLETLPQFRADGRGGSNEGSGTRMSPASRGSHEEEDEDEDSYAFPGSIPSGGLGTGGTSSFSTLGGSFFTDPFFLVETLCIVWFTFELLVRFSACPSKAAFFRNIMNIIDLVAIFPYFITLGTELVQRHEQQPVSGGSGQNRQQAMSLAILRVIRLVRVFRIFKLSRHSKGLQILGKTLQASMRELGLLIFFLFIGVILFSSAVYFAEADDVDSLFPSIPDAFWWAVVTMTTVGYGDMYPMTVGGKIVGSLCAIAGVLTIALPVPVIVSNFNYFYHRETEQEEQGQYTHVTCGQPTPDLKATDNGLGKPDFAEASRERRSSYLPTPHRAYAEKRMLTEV
Series [4] concerns the target rKV1.2 (rat) (UniProt P63142).
In series [5] the target is Shaker IR (insect) (UniProt P08510).
Chain of Shaker IR (insect) (P08510 whole entry): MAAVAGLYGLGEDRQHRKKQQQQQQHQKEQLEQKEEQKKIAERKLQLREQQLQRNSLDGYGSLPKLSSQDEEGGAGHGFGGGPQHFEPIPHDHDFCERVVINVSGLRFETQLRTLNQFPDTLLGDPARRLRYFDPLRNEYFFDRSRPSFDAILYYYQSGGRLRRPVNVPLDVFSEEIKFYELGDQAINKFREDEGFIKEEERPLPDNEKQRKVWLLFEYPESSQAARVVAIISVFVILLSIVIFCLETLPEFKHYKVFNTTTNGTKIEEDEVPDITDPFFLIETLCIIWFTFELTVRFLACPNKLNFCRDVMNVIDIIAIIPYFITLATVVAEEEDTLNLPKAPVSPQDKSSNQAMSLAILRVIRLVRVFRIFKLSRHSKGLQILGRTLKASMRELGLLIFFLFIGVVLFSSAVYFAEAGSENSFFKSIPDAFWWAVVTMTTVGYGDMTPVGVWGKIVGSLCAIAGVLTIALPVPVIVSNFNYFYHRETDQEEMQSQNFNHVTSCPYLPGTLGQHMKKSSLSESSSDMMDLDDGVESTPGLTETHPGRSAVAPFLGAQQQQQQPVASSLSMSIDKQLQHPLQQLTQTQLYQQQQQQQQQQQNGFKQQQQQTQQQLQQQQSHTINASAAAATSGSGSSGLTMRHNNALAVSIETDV
The target of series [6] is rKV1.1 (rat) (UniProt P10499).
Chain of rKV1.1 (rat) (P10499 whole entry): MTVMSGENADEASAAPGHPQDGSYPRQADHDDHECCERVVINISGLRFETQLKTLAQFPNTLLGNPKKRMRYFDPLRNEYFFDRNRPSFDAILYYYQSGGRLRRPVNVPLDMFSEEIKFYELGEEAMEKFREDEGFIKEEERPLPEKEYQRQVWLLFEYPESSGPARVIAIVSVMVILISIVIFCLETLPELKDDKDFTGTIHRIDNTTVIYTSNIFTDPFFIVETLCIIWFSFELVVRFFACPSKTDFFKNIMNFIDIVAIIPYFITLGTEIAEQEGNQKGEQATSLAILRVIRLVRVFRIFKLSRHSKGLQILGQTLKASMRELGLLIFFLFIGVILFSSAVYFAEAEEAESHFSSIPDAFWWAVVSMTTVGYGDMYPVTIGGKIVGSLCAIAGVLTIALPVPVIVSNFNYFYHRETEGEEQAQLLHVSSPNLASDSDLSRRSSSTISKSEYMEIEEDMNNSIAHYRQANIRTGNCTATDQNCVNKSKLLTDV
Series [7] concerns the target T3, hKV1.3.
The target in series [8] is rKV1.6 (rat) (UniProt P17659). The source holds these as a separate data set.
Series [9] addresses rKV1.2 (rat) (UniProt P63142). The source holds these as a separate data set.
Series [10] addresses Shaker IR (insect) (UniProt P08510). This is another data set of the same source.
Series [11] has as its target rKV1.1 (rat) (UniProt P10499). This is another data set of the same source.
Series [12] deals with T3, hKV1.3. This is another data set of the same source.
[13] abbreviates: TEVC, 18–22 °C, ND96 pH 7.4, 500 ms depolarizations to 0 mV from −90 mV, Hill fit, n ≥ 3.
The mark [14] stands for this setting: TEVC, 18–22 °C, ND96 pH 7.4, 500 ms depolarizations to 0 mV from −90 mV, Hill fit, mean ± standard error, n ≥ 3.

Where a SMILES comes first, the peptide text is derived from it. Bridges are numbered along the chain shown (N, C = ends).

We go through two compounds from article PMC3705364, “Biochemical and Electrophysiological Characterization of Two Sea Anemone Type 1 Potassium Toxins from a Geographically Distant Population of Bunodosoma caissarum” (Marine Drugs, 2013).

T2 sequence (P17659 whole entry): as the sequence (P17659 whole entry) above
T1 sequence (P10499 whole entry): as the sequence (P10499 whole entry) above
Chain of rKV1.2 (rat) (P63142 whole entry): as the sequence (P63142 whole entry) above
T5 sequence (P08510 with tags, fused parts or gaps DEL6-46): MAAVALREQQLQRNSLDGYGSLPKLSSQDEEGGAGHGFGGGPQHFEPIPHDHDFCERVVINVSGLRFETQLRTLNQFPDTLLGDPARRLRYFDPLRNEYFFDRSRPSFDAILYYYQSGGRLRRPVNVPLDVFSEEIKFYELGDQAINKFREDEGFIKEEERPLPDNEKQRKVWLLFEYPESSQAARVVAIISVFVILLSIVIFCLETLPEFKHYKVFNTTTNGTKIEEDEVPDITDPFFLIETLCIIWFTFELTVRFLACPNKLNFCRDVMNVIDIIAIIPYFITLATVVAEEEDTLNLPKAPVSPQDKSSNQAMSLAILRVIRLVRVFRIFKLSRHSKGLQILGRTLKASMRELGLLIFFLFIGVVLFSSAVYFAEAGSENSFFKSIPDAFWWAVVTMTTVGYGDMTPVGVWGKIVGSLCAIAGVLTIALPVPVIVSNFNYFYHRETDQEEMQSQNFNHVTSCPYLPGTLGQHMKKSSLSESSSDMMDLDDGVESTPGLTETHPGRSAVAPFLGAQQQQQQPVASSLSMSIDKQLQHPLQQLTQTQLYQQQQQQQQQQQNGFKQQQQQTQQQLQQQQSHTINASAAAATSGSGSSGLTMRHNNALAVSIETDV

Usually inhibition stands for how much of the control response was suppressed. For orientation: IC50 means the point on the concentration scale where inhibition reaches its midpoint. As for `CC[C@H](C)[C@@H]1NC(=O)[C@@H](NC(=O)[C@H](C)N)CSSC[C@@H](C(=O)N[C@@H](Cc2c[nH]cn2)C(=O)O)NC(=O)[C@H](CC(C)C)NC(=O)CNC(=O)[C@@H]2CSSC[C@@H]3NC(=O)[C@H](CO)NC(=O)CNC(=O)CNC(=O)[C@H](CCCCN)NC(=O)[C@H](CCCCN)NC(=O)[C@H](C(C)C)NC(=O)[C@H](Cc4c[nH]cn4)NC(=O)[C@H](CCCCN)NC(=O)[C@H](CSSC[C@H](NC(=O)[C@H](CC(N)=O)NC(=O)[C@H]([C@@H](C)CC)NC(=O)[C@H](CCCNC(=N)N)NC(=O)[C@H](Cc4ccc(O)cc4)NC(=O)[C@H](CCCCN)NC(=O)[C@H](CCC(N)=O)NC(=O)[C@H](CO)NC(=O)[C@H](CC(N)=O)NC(=O)[C@H](CCCCN)NC3=O)C(=O)N[C@@H](C)C(=O)N[C@@H](CCCCN)C(=O)N[C@@H]([C@@H](C)O)C(=O)N2)NC(=O)[C@H]([C@@H](C)O)NC(=O)CNC(=O)[C@H]([C@@H](C)O)NC(=O)[C@@H]2CCCN2C(=O)[C@H](Cc2ccccc2)NC(=O)[C@H](CCCNC(=N)N)NC(=O)[C@H](CC(=O)O)NC1=O` [BcsTx1] (H-ACIDRFPTGTCKHVKKGGSCKNSQKYRINCAKTCGLCH-OH; disulfide 2-37, 11-30, 20-34), the inhibition at 0.5 µM was 44% on rKV1.1 (0.5 µM, n ≥ 3, read-out: inhibition of rKV1.1 current); 88% at rKV1.6 (0.5 µM, n ≥ 3, read-out: inhibition of rKV1.6 current); 100% on hKV1.3 [1] (0.5 µM, n ≥ 3, read-out: inhibition of KV1.3 current); 100% on rKV1.2 (0.5 µM, n ≥ 3, read-out: inhibition of rKV1.2 current); 64% at Shaker IR (0.5 µM, n ≥ 3, read-out: inhibition of Shaker IR current). The IC50 is 405 ± 20.6 nM at rKV1.1 (setting [13]); 1.31 ± 0.2 nM at rKV1.6 (setting [13]); 74.1 ± 20.2 nM against hKV1.3 [1] (setting [14]); 0.03 ± 0.006 nM against rKV1.2 (setting [14]); 248 ± 96 nM against Shaker IR (setting [13]). In series [2] (0.5 µM, 12 KV isoforms), the “selectivity among KV channels (in words)” value is “selectively blocks KV1.x channels”. Besides, in series [2] (summary of IC50 values, compared with BgK and type 2 toxins), the “potency class on KV channels (in words)” value is given as “within the nanomolar range”. In series [2] (summary of the electrophysiological characterization), the “affinity/potency order among KV channels (in words)” value is “high affinity for rKv1.2 over rKv1.6, hKv1.3, Shaker IR and rKv1.1”.

As for “BcsTx1 (from UniProt C0HJC2 1-38) (peptide)”, the percent inhibition of the channel's current by 0.5 µM BcsTx1, two-electrode voltage clamp on X. laevis oocytes came out at 88% with rKV1.6 (rat) [3]; 100% with rKV1.2 (rat) [4]; 64% with Shaker IR (insect) [5]; 44% with rKV1.1 (rat) [6]; 100% with hKV1.3 [7]. Moreover, the IC50 of block of the channel's K+ current, two-electrode voltage clamp on X. laevis oocytes, concentration-response curve was determined as 1.31 nM in the series with rKV1.6 (rat) [8]; 0.03 nM with rKV1.2 (rat) [9]; 248 nM with Shaker IR (insect) [10]; 405 nM with rKV1.1 (rat) [11]; 74.1 nM with hKV1.3 [12].
